Laboratory results as given in patent publication US9193689B2, “3-aryl-5-substituted-isoquinolin-1-one compounds and their therapeutic use” (INSTITUTE OF CANCER RESEARCH: ROYAL CANCER HOSPITAL (THE), priority 2012, dated 2015).
“And” between values parts separate entries of the source, which are not always exact repeats. Equal entries are not always repeated.

Target: TNKS1 (Homo sapiens, UniProt O95271)
Assay: TNKS1/PARP Biochemical Assay (TNKS1)

SMILES	IC50
Cc1cccc2c(=O)[nH]c(-c3ccc(CN4CCNCC4C)cc3)cc12 (single isomer, unassigned) [IQ-051-2]	< 50 nM
Cc1cccc2c(=O)[nH]c(-c3ccc(C(=O)N(C)C4CCN(C)C4)cc3)cc12 (single isomer, unassigned) [IQ-205-1]	< 50 nM
Cc1cccc2c(=O)[nH]c(-c3ccc(C(=O)N(C)C4CCN(C)C4)cc3)cc12 (single isomer, unassigned) [IQ-205-2]	< 20 nM
Cc1cc(F)cc2c(=O)[nH]c(-c3ccc(C(=O)N(C)C4CCN(C)C4)cc3)cc12 (single isomer, unassigned) [IQ-207-1]	< 50 nM
Cc1cc(F)cc2c(=O)[nH]c(-c3ccc(C(=O)N(C)C4CCN(C)C4)cc3)cc12 (single isomer, unassigned) [IQ-207-2]	< 50 nM
CN1CCN(c2ccc(-c3cc4c(Cl)cccc4c(=O)[nH]3)c[n+]2[O-])CC1 [IQ-002-2, 5-Chloro-3-[6-(4-methyl-piperazin-1-yl)-1-oxy-pyridin-3-yl]-2H-isoquinolin-1-one]	< 500 nM
Cc1cccc2c(=O)[nH]c(-c3ccc(N4CCN(C5CC5)CC4)nc3)cc12 [IQ-004]	< 20 nM
Cc1cccc2c(=O)[nH]c(-c3ccc(N4CCC(N(C)C)CC4)nc3)cc12 [IQ-006]	< 20 nM
CN(C)C1CCN(c2ccc(-c3cc4c(Cl)cccc4c(=O)[nH]3)cn2)CC1 [IQ-007]	< 50 nM
Cc1cccc2c(=O)[nH]c(-c3ccc(N4CCC(N(C)C)C4)nc3)cc12 (stereo not shown) [IQ-008]	< 20 nM
CC(C)(C)OC(=O)N1CCN(c2ccc(-c3cc4c(Cl)cccc4c(=O)[nH]3)cc2)CC1 [IQ-010]	< 500 nM
Cc1cccc2c(=O)[nH]c(-c3ccc(N4CCN(CCO)CC4)nc3)cc12 [IQ-011, 3-{6-[4-(2-Hydroxy-ethyl)-piperazin-1-yl]-pyridin-3-yl}-5-methyl-2H-isoquinolin-1-one]	< 20 nM
O=c1[nH]c(-c2ccc(N3CCN(CCO)CC3)nc2)cc2c(Cl)cccc12 [IQ-012]	< 50 nM
Cc1cccc2c(=O)[nH]c(-c3ccc(N4CCN(C(=O)OC(C)(C)C)CC4)cc3)cc12 [IQ-013]	< 50 nM
O=c1[nH]c(-c2ccc(N3CCNCC3)cc2)cc2c(Cl)cccc12 [IQ-014]	< 20 nM
CC(=O)N1CCN(c2ccc(-c3cc4c(Cl)cccc4c(=O)[nH]3)cc2)CC1 [IQ-015]	< 50 nM
Cc1cccc2c(=O)[nH]c(-c3ccc(N4CCNCC4)cc3)cc12 [IQ-016]	< 500 nM and < 50 nM and < 20 nM and 12 nM
Cc1cccc2c(=O)[nH]c(-c3ccc(N4CCN(CCN(C)C)CC4)nc3)cc12 [IQ-018]	< 20 nM
Cc1cccc2c(=O)[nH]c(-c3cnc(N4CCN(C(=O)OC(C)(C)C)CC4)c(F)c3)cc12 [IQ-020]	< 500 nM
Cc1cccc2c(=O)[nH]c(-c3cnc(N4CCNCC4)nc3)cc12 [IQ-026]	< 50 nM
Cc1cccc2c(=O)[nH]c(-c3ccc(N4CCNCC4)nc3)cc12 [IQ-028-1]	< 20 nM
CNCc1ccc(-c2cc3c(C)cccc3c(=O)[nH]2)cc1 [IQ-029]	< 20 nM
Cc1cccc2c(=O)[nH]c(-c3ccc(CN4CCCC4)c(F)c3)cc12 [IQ-039]	< 500 nM
Cc1cccc2c(=O)[nH]c(-c3ccc(CN4CCN(C(=O)OC(C)(C)C)CC4)cc3)cc12 [IQ-040]	< 500 nM
Cc1cccc2c(=O)[nH]c(-c3ccc(CCN4CCCC4)cc3)cc12 [IQ-041]	< 500 nM

SMILES	IC50
Cc1cccc2c(=O)[nH]c(-c3ccc(CCN4CCOCC4)cc3)cc12 [IQ-042]	< 50 nM
CC(C)(C)OC(=O)N1CCN(Cc2ccc(-c3cc4c(Cl)cccc4c(=O)[nH]3)cc2)CC1 [IQ-044]	< 500 nM
CC(=O)N1CCN(Cc2ccc(-c3cc4c(Cl)cccc4c(=O)[nH]3)cc2)CC1 [IQ-045]	< 50 nM
CC(C)(C)OC(=O)N1CCN(Cc2ccc(-c3cc4c(C5CC5)cccc4c(=O)[nH]3)cc2)CC1 [IQ-047]	< 500 nM
O=c1[nH]c(-c2ccc(CN3CCNCC3)cc2)cc2c(C3CC3)cccc12 [IQ-049]	< 500 nM
Cc1cccc2c(=O)[nH]c(-c3ccc(CN4CCN(C5CC5)CC4)cc3)cc12 [IQ-050]	< 50 nM
Cc1cccc2c(=O)[nH]c(-c3ccc(CN4CCNCC4C)cc3)cc12 (stereo not shown) [IQ-051-1]	< 20 nM
Cc1cccc2c(=O)[nH]c(-c3ccc(CN4CCN(C)C(C)C4)cc3)cc12 (stereo not shown) [IQ-052]	< 50 nM
CC(=O)N1CCN(Cc2ccc(-c3cc4c(C)cccc4c(=O)[nH]3)cc2)CC1 [IQ-055, 3-[4-(4-Acetyl-piperazin-1-ylmethyl)-phenyl]-5-methyl-2H-isoquinolin-1-one]	< 20 nM
CN1CCN(Cc2ccc(-c3cc4c(Cl)cccc4c(=O)[nH]3)cc2)C(=O)C1 [IQ-056]	< 50 nM
Cc1cccc2c(=O)[nH]c(-c3ccc(CN4CCNCC4)c(F)c3)cc12 [IQ-059]	< 50 nM
Cc1cccc2c(=O)[nH]c(-c3ccc(CN4CCCN(C(=O)OC(C)(C)C)CC4)cc3)cc12 [IQ-060]	< 500 nM
Cc1cccc2c(=O)[nH]c(-c3ccc(CN4CCCNCC4)cc3)cc12 [IQ-062]	< 20 nM
Cc1cccc2c(=O)[nH]c(-c3ccc(CN4CC(C)NC(C)C4)cc3)cc12 (stereo not shown) [IQ-063]	< 500 nM
Cc1cccc2c(=O)[nH]c(-c3ccc(CN4CCCN(C)CC4)cc3)cc12 [IQ-065]	< 50 nM
Cc1cccc2c(=O)[nH]c(-c3ccc(C(C)N4CCNCC4)cc3)cc12 (stereo not shown) [IQ-067]	< 50 nM
Cc1cccc2c(=O)[nH]c(-c3ccc(CN4CCN(C(=O)OC(C)(C)C)CC4)nc3)cc12 [IQ-071]	< 500 nM
Cc1cccc2c(=O)[nH]c(-c3ccc(CN4CCNCC4)nc3)cc12 [IQ-072]	< 500 nM
Cc1cccc2c(=O)[nH]c(-c3ccc(CN4CCNCC4=O)cc3)cc12 [IQ-073]	< 50 nM
Cc1cccc2c(=O)[nH]c(-c3ccc(C(C)(C)N4CCNCC4)cc3)cc12 [IQ-075, 5-Methyl-3-[(4-(1-methyl-1-piperazin-1-yl]-ethyl)-phenyl]-2H-isoquinolin-1-one]	< 500 nM
Cc1cc(F)cc2c(=O)[nH]c(-c3ccc(CN4CCN(C(=O)OC(C)(C)C)CC4)cc3)cc12 [IQ-076]	< 500 nM
CC(C)(C)OC(=O)N1CCN(Cc2ccc(-c3cc4c(F)ccc(F)c4c(=O)[nH]3)cc2)CC1 [IQ-077]	< 500 nM
Cc1cc(F)cc2c(=O)[nH]c(-c3ccc(CN4CCNCC4)cc3)cc12 [IQ-078, 7-Fluoro-5-methyl-3-(4-piperazin-1-ylmethyl-phenyl)-2H-isoquinolin-1-one]	< 50 nM
O=c1[nH]c(-c2ccc(CN3CCNCC3)cc2)cc2c(F)ccc(F)c12 [IQ-079]	< 500 nM
O=c1[nH]c(-c2ccc(CN3CCNCC3)cc2)cc2c(Cl)cccc12 [IQ-083]	< 50 nM

SMILES	IC50
Cc1cccc2c(=O)[nH]c(-c3ccc(CN4CCNC(C)C4)cc3)cc12 (stereo not shown) [IQ-084-3]	< 50 nM
Cc1cccc2c(=O)[nH]c(-c3ccc(CN4C[C@@H]5C[C@H]4CN5C(=O)OC(C)(C)C)cc3)cc12 [IQ-085]	< 50 nM
Cc1cccc2c(=O)[nH]c(-c3ccc(CN4CCN5CCCC5C4)cc3)cc12 (stereo not shown) [IQ-087]	< 50 nM
Cc1cccc2c(=O)[nH]c(-c3ccc(CN4CCC5(CCN(C)C5)C4)cc3)cc12 (stereo not shown) [IQ-088]	< 20 nM
Cc1cccc2c(=O)[nH]c(-c3ccc(CN4C[C@@H]5CN(C(=O)OC(C)(C)C)C[C@@H]5C4)cc3)cc12 [IQ-089]	< 500 nM
Cc1cccc2c(=O)[nH]c(-c3ccc(CN4C[C@H]5CNC[C@H]5C4)cc3)cc12 [IQ-090]	< 50 nM
CN1CCC(CNC(=O)c2ccc(-c3cc4c(Cl)cccc4c(=O)[nH]3)cc2)CC1 [IQ-091, 4-(5-Chloro-1-oxo-1,2-dihydro-isoquinolin-3-yl)-N-(1-methyl-piperidin-4-ylmethyl)-benzamide]	< 500 nM
Cc1cccc2c(=O)[nH]c(-c3ccc(C(=O)N(C)CC4CCN(C(=O)OC(C)(C)C)CC4)cc3)cc12 [IQ-092, 4-({Methyl-[4-(5-methyl-1-oxo-1,2-dihydro-isoquinolin-3-yl)-benzoyl]-amino}-methyl)-piperidine-1-carboxylic acid tert-butyl ester]	< 500 nM
Cc1cccc2c(=O)[nH]c(-c3ccc(C(=O)N(C)CC4CCN(C)CC4)cc3)cc12 [IQ-095, N-Methyl-4-(5-methyl-1-oxo-1,2-dihydro-isoquinolin-3-yl)-N-(1-methyl-piperidin-4-ylmethyl)-benzamide]	< 50 nM
Cc1cccc2c(=O)[nH]c(-c3ccc(C(=O)N(C)C4CCNCC4)cc3)cc12 [IQ-096, N-Methyl-4-(5-methyl-1-oxo-1,2-dihydro-isoquinolin-3-yl)-N-piperidin-4-yl-benzamide]	< 50 nM
Cc1cccc2c(=O)[nH]c(-c3ccc(C(=O)N(C)CC4CCOCC4)cc3)cc12 [IQ-097, N-Methyl-4-(5-methyl-1-oxo-1,2-dihydro-isoquinolin-3-yl)-N-(tetrahydro-pyran-4-ylmethyl)-benzamide]	< 20 nM
Cc1cccc2c(=O)[nH]c(-c3ccc(C(=O)N(C4CC4)C4CCN(C)CC4)cc3)cc12 [IQ-098]	< 50 nM
Cc1cccc2c(=O)[nH]c(-c3ccc(C(=O)N(C)C4CCN(C)CC4)nc3)cc12 [IQ-099]	< 20 nM
CN1CCN(C(=O)c2ccc(-c3cc4c(Cl)cccc4c(=O)[nH]3)cc2)CC1 [IQ-101]	< 50 nM
Cc1cccc2c(=O)[nH]c(-c3ccc(C(=O)N4CCN(C)CC4)cc3)cc12 [IQ-104]	< 20 nM
Cc1cccc2c(=O)[nH]c(-c3ccc(C(=O)N4CCN(C5CC5)CC4)cc3)cc12 [IQ-105]	< 50 nM
Cc1cccc2c(=O)[nH]c(-c3ccc(C(=O)N4CCOCC4)cc3)cc12 [IQ-107]	< 20 nM
Cc1cccc2c(=O)[nH]c(-c3ccc(S(=O)(=O)N(C)C)cc3)cc12 [IQ-108]	< 50 nM
Cc1cccc2c(=O)[nH]c(-c3ccc(S(=O)(=O)N(C)C4CCN(C)CC4)cc3)cc12 [IQ-109]	< 20 nM
CN1CCC(N(C)S(=O)(=O)c2ccc(-c3cc4c(Cl)cccc4c(=O)[nH]3)cc2)CC1 [IQ-110]	< 500 nM
Cc1cccc2c(=O)[nH]c(-c3ccc(S(=O)(=O)N(C)CC4CCN(C)CC4)cc3)cc12 [IQ-111]	< 50 nM
CN1CCC(CN(C)S(=O)(=O)c2ccc(-c3cc4c(Cl)cccc4c(=O)[nH]3)cc2)CC1 [IQ-112]	< 50 nM
Cc1cccc2c(=O)[nH]c(-c3ccc(S(=O)(=O)N(C)CC4CCN(C(=O)OC(C)(C)C)CC4)cc3)cc12 [IQ-113]	< 500 nM
